Measurements: patent US20040127567A1, “Novel methods for treating disorders in which docosahexaenoic acid (DHA) levels are affected” (Beth Israel Deaconess Medical Center, Inc., priority 1998, published 2004)

System: wild-type pregnant mice
Assay: DHA administration to wild-type pregnant mice: fetal lung surfactant (DPPC), fetal lung and brain DHA
Assay type: in vivo, mouse
Text: The invention also provides a method for improving the amount of fetal lung surfactant in a mouse model. It appears that this is accomplished by upregulating fetal lung surfactant biosynthesis during pregnancy. This method again utilizes giving high doses of DHA which increases DHA and fetal surfactant levels in the fetal lung. Gestation in mice lasts about 19.5 days and previous reports have shown that surfactant levels in amniotic fluid are not detected until after day 16.5, equivalent to about 30 to 32 weeks gestational age in humans. Wild-type C57 mice were bred and identification of the cervical plug was used to determine the occurrence of pregnancy and gestational age. Beginning on day 9.5 of pregnancy (equivalent to about 24 weeks of gestational age in humans), mice were placed on Peptamen™ ±DHA for one week at different doses and sacrificed on day 16.5. Following sacrifice, amniotic fluid was aspirated from the amniotic sacs, and DPPC concentration determined by micro-HPTLC. In a different set of experiments, fetal lung and brain were removed, homogenized, lipids extracted with chloroform-methanol, and fatty acids transmethylated and analyzed by gas chromatography.

[1] = day 16.5, 20 mg/day DHA to the pregnant mouse from day 9.5

DHA concentration in fetal brain (day 16.5, 10 mg/day DHA to the pregnant mouse from day 9.5): 15.6 ± 1.1 nmoles/mg protein
DHA concentration in fetal brain [1]: 28.9 ± 1.9 nmoles/mg protein
DHA concentration in fetal lung [1]: 29.8 ± 5.5 nmoles/mg protein
Placental transfer (pregnant mice): readily crosses the placenta
SMILES: CC/C=C\C/C=C\C/C=C\C/C=C\C/C=C\C/C=C\CCC(=O)O [DHA, docosahexaenoic acid]
DHA in fetal brain (in words) (10 or 20 mg DHA/day to preterm wild-type pregnant mice): significant increase in DHA in fetal brain
DPPC concentration in amniotic fluid (day 16.5, 5 mg/day DHA from day 9.5): 9.3 ± 2.6 µg/mL
DPPC concentration in amniotic fluid (day 16.5, 20 mg/day DHA from day 9.5): 18.0 ± 3.6 µg/mL
